test: in vitro; settings: human, hela cells, % viability

First: CC(=O)Nc1ccc(NC(=O)CSCc2ccc(Cl)cc2Cl)cc1 [CBK131696]
Second: Cc1ccc(SCC(=O)Nc2ccc(O)cc2C(=O)O)cc1 [CBK131703]
The viability at 28.5 h, 10 µM of the first is lower: 96.4% for the first, 118% for the second.

First: O=C(O)CCC(=O)NCc1ccc(-c2nccnc2NS(=O)(=O)c2ccc(O)cc2)cc1 [CBK073843]
Second: c1ccc2c(c1)ccn2Cc1ccc(-c2nccnc2-c2nnn[nH]2)cc1 [CBK050821]
The viability at 28.5 h, 10 µM of the first is lower: 106% for the first, 107% for the second.

Compared with `COc1ccc(NC(=O)Nc2cc3cccnc3c(Br)n2)c(C)c1` [CBK063294], `COc1ccc(CNC(=O)c2nc(-c3ccccn3)no2)cc1` [CBK287877] is lower in viability at 28.5 h, 10 µM: 96.8% for the first, 90.3% for the second.

First: c1cncc(CN2CCCN(c3nccc(OCC4COc5ccccc5O4)n3)CC2)c1 (stereo not shown) [CBK083969]
Second: OC(COc1ccc2c(c1)OCO2)CN1CCCN(c2nc3ccc(Cl)cc3s2)CC1 (stereo not shown) [CBK074646]
The viability at 28.5 h, 10 µM of the first is higher: 112% for the first, 102% for the second.

First: CC(=O)c1ccc(NC(=O)N2Cc3nc[nH]c3C[C@H]2c2nc(-c3ccc(C)cc3)no2)cc1 [CBK288959]
Second: COc1ccc(-c2cc(C(=O)Nc3ccc(F)c(Cl)c3)cnc2-c2cccc(C)c2)cc1 [CBK037488]
The viability at 28.5 h, 10 µM of the first is lower: 83.6% for the first, 93.3% for the second.

First: Cn1cnnc1SCC(C)(C)NS(=O)(=O)c1ccccc1 [CBK268276]
Second: CC(NC(=O)c1ccccc1)c1nnc(SCC(=O)N2CCOCC2)n1C (stereo not shown) [CBK269647]
The viability at 28.5 h, 10 µM of the first is higher: 96.4% for the first, 86% for the second.

Compared with `CC(C)NC(=O)C1(Cc2ccc(-c3ccccc3)cc2)CCN(C(=O)C2CCCC2)CC1` [CBK285751], `CCNC(=O)C1(Cc2ccccc2-c2ccccc2)CCN(C(=O)c2ccccc2)CC1` [CBK285700] is higher in viability at 28.5 h, 10 µM: 101% for the first, 109% for the second.

Compared with `CC(C)OC(=O)Cc1nc(CN2CCOC(c3ccc(F)cc3)C2)cs1` (stereo not shown) [CBK305439], `Cc1noc(C)c1CNS(=O)(=O)N1CCOC(c2ccccc2)C1` (stereo not shown) [CBK305306] is lower in viability at 28.5 h, 10 µM: 119% for the first, 83.2% for the second.

First: CCC1(CC)OC(N[C@@H](C)c2ccccc2C(F)(F)F)=NC1=O [CBK122691]
Second: Cc1noc(CN2CCNC(=O)C2c2ccccc2C(F)(F)F)n1 (stereo not shown) [CBK306405]
The viability at 28.5 h, 10 µM of the first is lower: 91.2% for the first, 98.2% for the second.

First: CCOc1ccc(CN(C)C(C)C(=O)Nc2cc(C)no2)cc1 (stereo not shown) [CBK305607]
Second: COc1ccc(OCCNC(=O)c2cc(Br)cnc2N(C)C(C)=O)cc1 [CBK076467]
The viability at 28.5 h, 10 µM of the first is lower: 96.6% for the first, 104% for the second.

First: c1csc(CNc2nccnc2-c2ccoc2)c1 [CBK036599]
Second: CC(C)Nc1nccnc1Sc1cccs1 [CBK089490]
The viability at 28.5 h, 10 µM of the first is lower: 107% for the first, 123% for the second.

First: CCn1c2cc(C)oc2c2cnn(CC(=O)N3CCCC3)c(=O)c21 [CBK284215]
Second: CCn1c(C2CCN(C(=O)CCCn3cncn3)CC2)nn(C)c1=O [CBK307326]
The viability at 28.5 h, 10 µM of the first is higher: 101% for the first, 92.4% for the second.

Compared with `Cc1cc(OCC(=O)N2CCCc3c(cnn3C)C2)ccc1Cl` [CBK285277], `COCCn1nc(C(=O)N2CCCc3ccccc32)ccc1=O` [CBK305590] is lower in viability at 28.5 h, 10 µM: 93.3% for the first, 85.1% for the second.

Going from `COCCOc1cccc(OCCOc2nccnc2N2CCNC[C@H]2C)c1` [CBK048435] to `CC(C)Nc1cccnc1N1CCN(C(=O)c2ccncc2)CC1` [CBK016714], the viability at 28.5 h, 10 µM falls from 104% to 79%.

Going from `CN1CCN(C(=O)c2[nH]c3ccccc3c2NS(=O)(=O)c2cc(F)c(Br)cc2F)CC1` [CBK050051] to `CN(C)CCNC(=O)C1CCN(c2nc3c(-c4ccccc4F)csc3c(=O)[nH]2)CC1` [CBK215437], the viability at 28.5 h, 10 µM falls from 90.5% to 85.1%.

Compared with `C[C@@H](Nc1nc(-c2cc(C(F)(F)F)cc(C(F)(F)F)c2)cnc1N)c1ccccc1` [CBK063720], `C[C@@H](Nc1cncc(-c2ccncc2)n1)c1ccccc1` [CBK066055] is lower in viability at 28.5 h, 10 µM: 105% for the first, 90% for the second.

Compared with `CCc1c(C)sc(NC(=O)C2C3C=CC(C3)C2C(=O)O)c1C(N)=O` (stereo not shown) [CBK265433], `CC(C)(C)C(=O)NCc1ccc(C(=O)CSc2n[nH]c(=O)n2C2CC2)s1` [CBK295653] is higher in viability at 28.5 h, 10 µM: 97.9% for the first, 111% for the second.

First: COc1ccc(C(C)C)cc1-c1cnc2[nH]c(=O)n([C@@H](CO)C(C)C)c2n1 [CBK064495]
Second: Cc1sc2nc(C(C)N(C)Cc3cc[nH]n3)[nH]c(=O)c2c1C (stereo not shown) [CBK306275]
The viability at 28.5 h, 10 µM of the first is lower: 90.3% for the first, 99.3% for the second.

First: O=C(Nc1ccccc1)c1ccc(S(=O)(=O)N2CCC(C(=O)O)CC2)cc1 [CBK267806]
Second: Cn1ccc(NC(=O)c2cccc(S(=O)(=O)N3CCCC3)c2)n1 [CBK306032]
The viability at 28.5 h, 10 µM of the first is lower: 89.7% for the first, 104% for the second.

Going from `COc1cccc(CNc2ccc(N3CCCCC3)cc2)c1OCc1cccs1` [CBK074531] to `CN1CCN(c2ccc(NC(=O)c3ccc([N+](=O)[O-])o3)cc2)CC1` [CBK269727], the viability at 28.5 h, 10 µM falls from 96.5% to 18.8%.

Compared with `CCc1cc2c(=O)c(-c3nc4ccccc4n3C)c(C)oc2c(CN2CCOCC2)c1O` [CBK262124], `COC(=O)CN1C(CN2CCOCC2)=Nc2ccc(Br)cc2C1c1ccccc1` (stereo not shown) [CBK262981] is lower in viability at 28.5 h, 10 µM: 94.1% for the first, 89.8% for the second.

Compared with `CC[C@H]1CN(C(C)=O)CC[C@H]1CC(=O)Nc1nccs1` [CBK289130], `COC(=O)[C@H]1CCc2ccccc2N1C(=O)C1CC1` [CBK285518] is lower in viability at 28.5 h, 10 µM: 97.8% for the first, 78.9% for the second.

Compared with `CC(=O)N1N=C(c2cccnc2)OC1(C)C` [CBK023619], `FC(F)(F)c1cccc(-n2cc(-c3cccnc3)nn2)c1` [CBK113053] is lower in viability at 28.5 h, 10 µM: 90.4% for the first, 86% for the second.

Compared with `COc1ccc(CCNC(=S)NC2CC3CCC2C3)cc1OC` (stereo not shown) [CBK015410], `COc1ccc(OC)c(NC(=O)CC2NCCNC2=O)c1` (stereo not shown) [CBK266477] is higher in viability at 28.5 h, 10 µM: 90.8% for the first, 95.9% for the second.

First: CC(OCc1ccccc1)C(=O)NCC1(N2CCOCC2)CCSC1 (stereo not shown) [CBK305678]
Second: c1ccc2c(CNCCN3CCOCC3)cccc2c1 [CBK278156C]
The viability at 28.5 h, 10 µM of the first is higher: 114% for the first, 90.9% for the second.

Going from `O=C(C(Cc1ccccc1)N1C(=O)C2CCCCC2C1=O)N1CCN(Cc2ccc3c(c2)OCO3)CC1` (stereo not shown) [CBK264648] to `O=C(Nc1ccccc1C(=O)N1CCN(Cc2ccccc2)CC1)c1ccccn1` [CBK263512], the viability at 28.5 h, 10 µM rises from 102% to 106%.

Going from `Nc1nc(N)nc(CSc2ncc(-c3ccccc3)n2-c2ccccc2)n1` [CBK297103] to `c1ccc(-c2nnc(SCc3nnc(-c4ccccc4)o3)[nH]2)cc1` [CBK270003], the viability at 28.5 h, 10 µM rises from 85.9% to 104%.

First: CC(C)c1ccc(S(=O)(=O)NCCC#N)cc1 [CBK044722]
Second: O=[N+]([O-])c1cccc(NS(=O)(=O)c2ccc(Cl)c(Cl)c2)c1 [CBK044396]
The viability at 28.5 h, 10 µM of the first is higher: 105% for the first, 78.5% for the second.

Going from `O=C(O)CCN1CCCC2(CCN(C(=O)c3ccoc3)C2)C1` (stereo not shown) [CBK137139] to `COCCN1CCOC2(CCN(C(=O)c3ccc(C)cc3)CC2)C1c1ccccc1OC` (stereo not shown) [CBK112657C], the viability at 28.5 h, 10 µM rises from 93.4% to 100%.

Compared with `O=C(CSc1nnc(-c2ccco2)o1)c1ccc2c(c1)OCCO2` [CBK266387], `O=C1CC(NCc2ccc3c(c2)OCO3)C(=O)N1c1ccc(OC(F)(F)Cl)cc1` (stereo not shown) [CBK074357] is lower in viability at 28.5 h, 10 µM: 105% for the first, 87.7% for the second.

Going from `COc1ccc(C(=O)Nc2nc3ccc(S(N)(=O)=O)cc3s2)cc1` [CBK291147] to `Cc1cc(C)c2nc(-c3ccccn3)cc(C(=O)Nc3ccc(S(=O)(=O)Nc4cc(C)on4)cc3)c2c1` [CBK267779], the viability at 28.5 h, 10 µM rises from 96.9% to 105%.

Going from `CCOc1ccc(-c2cncc(Nc3ccc(C#N)cc3)n2)cc1` [CBK065862] to `Cc1ccc(NC(=O)c2ccc(-c3cccc([N+](=O)[O-])c3)o2)cc1-c1nc2ncccc2o1` [CBK262947], the viability at 28.5 h, 10 µM rises from 87.2% to 89.7%.

Compared with `OCCNc1nc(O)cc(C(F)(F)F)n1` [CBK001804], `Cc1ccc2nc(C)cc(NCCO)c2c1` [CBK126909] is higher in viability at 28.5 h, 10 µM: 99.5% for the first, 104% for the second.

First: Cc1cc(Cl)ccc1CNC(=O)c1ccccc1Nc1cccc(C(F)(F)F)c1 [CBK149544]
Second: CC(C)c1ccc(C(C)NC(=O)Cn2cc(C(=O)Nc3ccc(F)cc3)ccc2=O)cc1 (stereo not shown) [CBK286049]
The viability at 28.5 h, 10 µM of the first is lower: 97.3% for the first, 97.6% for the second.

First: CN(CCc1cnn(C)c1)C(=O)NCCCN1CCCC1=O [CBK307008]
Second: CSCCCNC(=O)c1cnn2c(C)c(Cc3ccccc3C)c(C)nc12 [CBK162028]
The viability at 28.5 h, 10 µM of the first is lower: 91.1% for the first, 96.7% for the second.

Going from `CCc1cccc2c(CN3CCc4c(nc(C)[nH]c4=O)C3)c[nH]c12` [CBK283993] to `CCOC(=O)N1CCN(S(=O)(=O)c2ccc3oc(=O)ccc3c2)CC1` [CBK305870], the viability at 28.5 h, 10 µM falls from 94.6% to 82.6%.

Compared with `CCOC(=O)C1(NC(=O)C2(Oc3cccnc3C)CCNCC2)CCC1` [CBK306688], `Cc1ncoc1C(=O)N1CCC2(C/C=C/C[C@H]3COCC[C@H]3NC(=O)CNC2=O)CC1` [CBK292086] is lower in viability at 28.5 h, 10 µM: 89.9% for the first, 89.3% for the second.

Going from `Nc1ncc(-c2cccc3ncccc23)nc1NC1CCOCC1` [CBK063852] to `Cc1nnc(SCc2nc(N)nc(Nc3ccccc3)n2)s1` [CBK266436], the viability at 28.5 h, 10 µM rises from 101% to 109%.

Compared with `O=C(Nc1nc2c(s1)CCCCC2)C1CCN(S(=O)(=O)c2ccc(F)cc2)C1` (stereo not shown) [CBK285708], `Cc1ccc(S(=O)(=O)N2CCN(C(=O)C3CCCCC3C(=O)O)CC2)cc1C` (stereo not shown) [CBK286936] is lower in viability at 28.5 h, 10 µM: 111% for the first, 97% for the second.

First: CCCC1CCN(CC2C=Cc3cc(-c4ccc(S(C)(=O)=O)cc4)ccc3O2)CC1 (stereo not shown) [CBK158647]
Second: CC(C)(C)NC(=O)NC1CCC2(CC1)CC(=O)c1ccccc1O2 (stereo not shown) [CBK283390]
The viability at 28.5 h, 10 µM of the first is lower: 86.2% for the first, 109% for the second.

Compared with `Cc1noc(C)c1CC(=O)NC(C)c1cc2cc(Cl)ccc2o1` (stereo not shown) [CBK281445], `COCCNc1nc(-c2cccc(Cl)c2Cl)ccc1C(=O)N(C)CCN(C)C` [CBK105922] is higher in viability at 28.5 h, 10 µM: 90.1% for the first, 98.3% for the second.

Going from `CC12CN3CC(C)(CN(C1)C3c1ccc(O)cc1)C2O` (stereo not shown) [CBK262663] to `Cc1nccn1CC1(O)CCN(C(=O)CCc2ccccc2F)CC1` [CBK284689], the viability at 28.5 h, 10 µM falls from 107% to 96.6%.

Compared with `CSc1nnc2n3ncnc3c3c4c(sc3n12)CCCC4C` (stereo not shown) [CBK288542], `O=C(Cc1c[nH]cn1)Nc1ccc2cc[nH]c2c1` [CBK160059] is lower in viability at 28.5 h, 10 µM: 97.3% for the first, 95.1% for the second.

`O=C(O)c1cccc(N2C(=O)c3cccc4c(C(=O)c5ccccc5)ccc(c34)C2=O)c1` [CBK299809] gave a viability at 28.5 h, 10 µM of 74.2%.

same assay, conditions: human, hela cells, % viability, bulk resorufin, single well

`Cc1nocc1C(=O)N1CCC2(CC1)OCc1ccccc1O2` [CBK061470] gave a viability at 28.5 h, 10 µM of 105%.

— PMC12040169 (PLOS Biology, 2025)
